Assay results taken from patent US20060069132A1, “Azolecarboxamide herbicides” (priority 2004, published 2006).
Where two headings read alike, the source gives them in different places.

Legend:
[1] = test system: morningglory; test: Test A pre-/postemergence herbicide test; assay type: in vivo, Ipomoea spp.; settings: for pest or weed control at 125 g/ha / pest or weed control at 500 g/ha: Ipomoea, 240 h, read-out: Morningglory plant response rating; for pest or weed control at 125 g/ha: 125 g ai/ha
In short: (§1)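 Visual injury scores on a 0–100 scale (100 = complete control) taken about ten days post-treatment in greenhouse against untreated controls; dash means no result. Treatments: preemergence soil spray and postemergence spray to runoff on one- to two-leaf plants 2 to 10 cm tall, surfactant-containing formulation.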

[2] = test system: redroot pigweed; test: Test A pre-/postemergence herbicide test; assay type: in vivo, Amaranthus retroflexus; settings: for pest or weed control at 125 g/ha / pest or weed control at 500 g/ha: Amaranthus retroflexus, 240 h, read-out: Pigweed plant response rating; for pest or weed control at 125 g/ha: 125 g ai/ha
In short: as §1

[3] = test system: smallflower umbrella sedge; test: Test C flooded paddy test; assay type: in vivo, Cyperus difformis
[4] = test system: barnyardgrass; test: Test C flooded paddy test; assay type: in vivo, Echinochloa crus-galli
In short: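 Injury scored visually against controls on a 0 (no effect) to 100 (complete control) scale, 12 to 14 days after treatment in greenhouse. Flooded paddy plants treated at 2-leaf stage; postemergence plants at 1- to 4-leaf stage, 2 to 18 cm tall.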

[5] = test system: velvetleaf; test: Test A pre-/postemergence herbicide test; assay type: in vivo, Abutilon theophrasti; settings: for pest or weed control at 125 g/ha / pest or weed control at 500 g/ha: Abutilon theophrasti, 240 h, read-out: Velvetleaf plant response rating; for pest or weed control at 125 g/ha: 125 g ai/ha
In short: as §1

[6] = Postemergence, 500 g ai/ha, 0 to 100 scale, 0 no effect, 100 complete control
[7] = Postemergence, 2000 g ai/ha, 0 to 100 scale, 0 no effect, 100 complete control
[8] = Preemergence, 2000 g ai/ha, visual rating, 0 to 100 scale (0 no effect, 100 complete control)
[9] = preemergence, 500 g ai/ha, visual injury, 0 to 100 scale (0 no effect, 100 complete control)
[10] = 62 g ai/ha, scale 0 to 100 (0 no effect, 100 complete control)
[11] = 125 g ai/ha, scale 0 to 100 (0 no effect, 100 complete control)
[12] = 250 g ai/ha, scale of 0 to 100, 0 is no effect, 100 is complete control
[13] = 500 g ai/ha, visual rating after 12 to 14 days, scale 0 to 100 (0 no effect, 100 complete control)
[14] = post-emergence, Postemergence, 0 to 100 scale, 0 no effect, 100 complete control
[15] = post-emergence, Postemergence, 500 g ai/ha, 0 to 100 scale, 0 no effect, 100 complete control
[16] = pre-emergence, preemergence, visual injury, 0 to 100 scale (0 no effect, 100 complete control)
[17] = pre-emergence, preemergence, 500 g ai/ha, visual injury, 0 to 100 scale (0 no effect, 100 complete control)

Structure (SMILES)	Morningglory plant response rating [1, 6]	Plant response rating, Morningglory [1, 7]	Morningglory plant response rating [1, 8]	Pigweed plant response rating [2, 6]	Plant response rating, Pigweed [2, 7]	Pigweed plant response rating [2, 8]	Pigweed plant response rating [2, 9]	Sedge, Umbrella plant response rating [3, 11]	Sedge, Umbrella plant response rating [3, 12]	Plant response rating, Sedge, Umbrella [3, 13]	Barnyardgrass plant response rating [4, 10]	Barnyardgrass plant response rating [4, 12]	Plant response rating, Barnyardgrass [4, 13]	Velvetleaf plant response rating [5, 6]	Plant response rating, Velvetleaf [5, 7]	Velvetleaf plant response rating [5, 8]	Velvetleaf plant response rating [5, 9]	Morningglory plant response rating [1, 9]	Sedge, Umbrella plant response rating ([3]; 62 g ai/ha, scale 0 to 100)	Barnyardgrass plant response rating [4, 11]	also measured
C=Cn1nc(C(C)(C)C)cc1C(=O)Nc1cccc(C(C)=O)c1 [Compound 127]	10	20	30	40	50	50	40	80	80	85	20	30	55	0	0	30	10	–	–	–	Morningglory plant response rating ([1]; Preemergence, 500 g ai/ha, visual rating, 0 to 100 scale (0 no effect, 100 complete control)): 30; Sedge, Umbrella plant response rating [3, 10]: 80; Barnyardgrass plant response rating ([4]; 125 g ai/ha, scale of 0 to 100, 0 is no effect, 100 is complete control): 30
CCOC(=O)c1cccc(NC(=O)c2cc(C(C)(C)C)nn2C)n1 [Compound 313]	30	55	55	100	100	100	95	70	–	–	0	–	–	40	50	80	65	20	30	0	Sedge, Umbrella plant response rating ([3]; 16 g ai/ha, scale 0 to 100): 0; Sedge, Umbrella plant response rating ([3]; 31 g ai/ha, scale 0 to 100): 0; Barnyardgrass plant response rating ([4]; 16 g ai/ha, scale 0 to 100): 0; Barnyardgrass plant response rating ([4]; 31 g ai/ha, scale 0 to 100): 0
CCNC(=O)c1cccc(NC(=O)c2nc(C(C)(C)C)nn2CC)c1 [Compound 446, 3-(1,1-dimethylethyl)-1-ethyl-N-[3-[(ethylamino)carbonyl]phenyl]-1H-1,2,4-triazole-5-carboxamide]	–	–	–	–	–	–	–	–	–	–	–	–	–	–	–	–	–	–	–	–	pest or weed control at 125 g/ha [1, 14]: 10%; pest or weed control at 500 g/ha [1, 15]: 40%; pest or weed control at 125 g/ha [1, 16]: 10%; pest or weed control at 500 g/ha [1, 17]: 15%; pest or weed control at 125 g/ha [2, 14]: 65%; pest or weed control at 500 g/ha [2, 15]: 80%; pest or weed control at 125 g/ha [2, 16]: 90%; pest or weed control at 500 g/ha [2, 17]: 100%; pest or weed control at 125 g/ha [5, 14]: 30%; pest or weed control at 500 g/ha [5, 15]: 60%; pest or weed control at 125 g/ha [5, 16]: 10%; pest or weed control at 500 g/ha [5, 17]: 20%
CCNC(=O)c1ccc(F)c(NC(=O)c2c3c(nn2CC)C(C)(C)CC3)c1 [Compound 353]	–	–	–	–	–	–	–	0	50	50	0	20	20	–	–	–	–	–	0	0	–
C=CCN(C)C(=O)c1cccc(NC(=O)c2cc(C(C)(C)C)nn2CC)c1 [Compound 285]	40	50	45	80	100	100	100	35	50	65	10	55	75	60	75	40	35	25	25	25	–
CCn1nc(C(C)(C)C)c(F)c1C(=O)Nc1cc(C(=O)N(C)C)ccc1F [Compound 276, N-[5-[(dimethylamino)carbonyl]-2-fluorophenyl]-3-(1,1-dimethylethyl)-1-ethyl-4-fluoro-1H-pyrazole-5-carboxamide]	–	–	–	–	–	–	–	–	–	–	–	–	–	–	–	–	–	–	–	–	pest or weed control at 62 g/ha ([3]; Cyperus difformis, 62 g ai/ha, scale 0 to 100, read-out: Sedge, Umbrella plant response rating): 45%; pest or weed control at 125 g/ha ([3]; Cyperus difformis, 125 g ai/ha, scale 0 to 100 (0 no effect, 100 complete control), read-out: Sedge, Umbrella plant response rating): 75%; pest or weed control at 250 g/ha ([3]; Cyperus difformis, 250 g ai/ha, scale of 0 to 100, 0 is no effect, 100 is complete control, read-out: Sedge, Umbrella plant response rating): 80%; pest or weed control at 500 g/ha ([3]; Cyperus difformis, 500 g ai/ha, visual rating after 12 to 14 days, scale 0 to 100 (0 no effect, 100 complete control), read-out: Plant response rating, Sedge, Umbrella): 85%; pest or weed control at 62 g/ha ([4]; Echinochloa crus-galli, 62 g ai/ha, scale 0 to 100 (0 no effect, 100 complete control), read-out: Barnyardgrass plant response rating): 0%; pest or weed control at 125 g/ha ([4]; Echinochloa crus-galli, 125 g ai/ha, scale 0 to 100 (0 no effect, 100 complete control), read-out: Barnyardgrass plant response rating): 15%; pest or weed control at 250 g/ha ([4]; Echinochloa crus-galli, 250 g ai/ha, scale of 0 to 100, 0 is no effect, 100 is complete control, read-out: Barnyardgrass plant response rating): 50%; pest or weed control at 500 g/ha ([4]; Echinochloa crus-galli, 500 g ai/ha, visual rating after 12 to 14 days, scale 0 to 100 (0 no effect, 100 complete control), read-out: Plant response rating, Barnyardgrass): 70%
